Measurements published in US20250282799A1, “SUBSTITUTED PYRIDO[4,3-d]PYRIMIDINES AS KRAS MODULATORS” (Alterome Therapeutics, Inc., priority 2023, published 2025).

Tests used:
[1] = test system: KRAS G12V dependent lung adenocarcinoma cell line, NCI-H441; test: Cellular pERK (Thr202/Tyr204) FRET/HTRF assay; format: cell-based; details: Homo sapiens
In short: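 Adherent NCI-H441 cells, plated the previous night, receive test compound for one hour at 37 °C. They are then lysed with a buffer containing phosphatase inhibitors and incubated at room temperature with Eu3+-cryptate and d2 labelled anti-pERK antibodies. HTRF signal gives IC50 by curve fitting.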

KRAS (G12D)/CRAF = KRAS (G12D)/CRAF (Homo sapiens (Human), UniProt P01116, G12D); test: TR-FRET biochemical KRAS:CRAF protein:protein interaction assay, KRAS (G12D); format: binding; details: GMPPNP loaded Biotin-KRAS (G12D), FLAG CRAF RBD; read-out: TR-Fret_PPI KRAS (G12D)/CRAF IC50
Description: (§1) The effect of test compounds on KRAS and CRAF protein: protein interaction (PPI) was measured by time resolved fluorescence resonance energy transfer (TR-FRET) Ras binding domain (RBD) assay, which uses a signal generated through fluorescent resonance energy transfer between a donor and an acceptor molecule when in close proximity to each other. Interference from buffer, media, etc. is reduced by dual-wavelength detection; the energy pulse from the excitation source is followed by a time delay, which allows interfering short-lived fluorescence to decay (Degorce et al. 2009).
(§2) The KRAS: CRAF PPI assay can be utilized to identify KRAS ‘ON’ state inhibitors, as the KRAS protein is loaded with GMPPNP (a non-hydrolyzable GTP analog), which represents the active KRAS ‘ON’ state. FLAG-tagged CRAF RBD binding to the GMPPNP loaded biotin-tagged KRAS will result in a fluorescence energy transfer from the donor (Tb-anti-FLAG, emission 620 nm) to the acceptor (SA-XL665, emission 665 nm). Disruption of KRAS and CRAF binding will reduce the TR-FRET signal.
(§3) Test compound was dissolved in DMSO to create a 1 mM stock solution. A 45 μL volume of stock solution was transferred to a 384well polypropylene plate. A 3fold, 10point dilution was performed by transferring 15 μL of test compound solution into 30 μL of DMSO.
(§4) Assay buffer A was prepared with […] Hepes, pH7.3, 0.002% Tween 20, 0.1% BSA, […] NaCl, 5 mM MgCl2, and 10 uM GMP-PNP. 4× KRAS Solution was prepared with 80 nM of Biotin-KRAS (G12D/V), GMPPNP loaded or Biotin-KRAS (WT), GMPPNP loaded protein in assay buffer A. 4× Raf RBD Solution was prepared with 400 nM FLAG CRAF RBD in assay buffer A. 2× Detection Mixture was prepared with 2 nM Tb-anti-FLAG antibody and 10 nM and 10 nM SA-XL665 in assay buffer A.
(§5) A volume of 100 nL of 100× test compound working solution or DMSO vehicle control solution was dispensed to each well (duplicate for each concentration) of a 384-well ProxiPlate Plus assay plate. A volume of 2.5 μL of 4× KRAS Solution was added to each well of the assay plate for a final concentration of 20 nM Biotin-KRAS (G12D/V),GMPPNP loaded or 20 nM Biotin-KRAS (WT), GMPPNP. For low control, add 2.5 μL of assay buffer (no KRAS protein). Pre-incubate assay plate for 30 minutes at room temperature. Following pre-incubation of test compound or DMSO with Biotin-KRAS (G12D/V),GMPPNP loaded or Biotin-KRAS (WT),GMPPNP, a volume of 2.5 μL of 4× FLAG cRAF RBD Solution was added to each well of the assay plate for a final concentration of 100 nM FLAG CRAF RBD. The assay plate was subjected to centrifuge at 1000 rpm for 1 minute and pre-incubate assay plate for 150 minutes at room temperature. Following the pre-incubation with FLAG cRAF RBD, a volume of 5 μl of 2× Detection Mixture was added to each well of the assay plate for a final concentration of 1 nM Tb-anti-FLAG and 5 nM SA-XL665. The assay plate was centrifuged at 1000 rpm for 1 minute and incubated for 90 minutes at room temperature. TR-FRET signal was measured on a BioTek Synergy Neo2 microplate reader (excitation at 340 nm, emission at 665 nn and 620 nm).
(§6) TR-FRET ratios were calculated by dividing the acceptor emission value (665 nm) by the donor emission value (620 nm) for each sample.
(§7) Percent inhibition was calculated by multiplying the normalized TR-FRET ratio by 100, where TR-FRET ratio^HIGH was the TR-FRET ratio obtained from wells with 1% DMSO and complete reaction mixture, TR-FRET ratio^LOW was the ratio obtained from wells with 1% DMSO and reaction mixture without KRAS protein and TR-FRET ratio^SAMPLE was the TR-FRET ratio from wells with test compound and complete reaction mixture. The IC50 values were calculated from normalized TR-FRET ratios with the Levenberg-Marquardt 4 parameter fitting procedure.
(§8) This assay quantifies the interaction of a KRAS mutant protein (e.g., G12V) with the CRAF Ras-binding domain (RBD). […]

KRAS (G12V)/CRAF = KRAS (G12V)/CRAF (Homo sapiens (Human), UniProt P01116, G12V); test: TR-FRET biochemical KRAS:CRAF protein:protein interaction assay, KRAS (G12V); format: binding; details: GMPPNP loaded Biotin-KRAS (G12V), FLAG CRAF RBD; read-out: TR-Fret_PPI KRAS (G12V)/CRAF IC50
Description: as §1, §2, §3, §4, §5, §6, §7, §8

[2] = NCI-H441, cellular pERK (Thr202/Tyr204) HTRF, NCI-H441 cells
[3] = NCI-H441, pERK HTRF, NCI-H441 cells (KRAS G12V)

Sequence of KRAS (G12V)/CRAF (P01116-2 other isoform, or with tags, fused parts or gaps G12V): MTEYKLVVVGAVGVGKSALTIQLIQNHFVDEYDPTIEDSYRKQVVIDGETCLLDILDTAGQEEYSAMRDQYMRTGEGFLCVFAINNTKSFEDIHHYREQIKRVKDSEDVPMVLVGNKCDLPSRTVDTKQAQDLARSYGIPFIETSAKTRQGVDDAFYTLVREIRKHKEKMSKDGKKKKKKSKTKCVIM
Sequence of KRAS (G12D)/CRAF (P01116-2 other isoform, or with tags, fused parts or gaps G12D): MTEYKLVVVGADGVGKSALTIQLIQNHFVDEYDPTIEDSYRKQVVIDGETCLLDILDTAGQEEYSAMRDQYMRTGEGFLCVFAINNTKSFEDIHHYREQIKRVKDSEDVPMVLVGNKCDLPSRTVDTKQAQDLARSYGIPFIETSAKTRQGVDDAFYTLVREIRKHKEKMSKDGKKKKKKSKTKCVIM

SMILES	IC50 [1, 2] [nM]	IC50 (KRAS (G12D)/CRAF) [nM]	IC50 (KRAS (G12V)/CRAF) [nM]	IC50 [1, 3] [nM]
[2H]C([2H])(Oc1nc(N2CCOC[C@@H]3[C@@H](Cl)[C@@H]32)c2cnc(-c3cc(N)cc4ccc(F)c(C#C)c34)c(F)c2n1)[C@@]12CCCN1[C@H](C)[C@H](F)C2 [Example 339, 4-(4-((1R,7R,8R)-8-chloro-5-oxa-2-azabicyclo[5.1.0]octan-2-yl)-8-fluoro-2-(((2R,3R,7aS)-2-fluoro-3-methyltetrahydro-1H-pyrrolizin-7a(5H)-yl)methoxy-d2)pyrido[4,3-d]pyrimidin-7-yl)-5-ethynyl-6-fluoronaphthalen-2-amine]	500 to 10000	3000	≥ 10000	
[2H]C([2H])(Oc1nc(N2CCOC[C@H]3[C@@H](F)[C@H]32)c2cnc(-c3cc(N)cc4ccc(F)c(C#C)c34)c(F)c2n1)[C@@]12CCCN1C[C@H](F)C2 [Example 225, 5-ethynyl-6-fluoro-4-(8-fluoro-4-((1S,7S,8R)-8-fluoro-5-oxa-2-azabicyclo[5.1.0]octan-2-yl)-2-(((2R,7aS)-2-fluorotetrahydro-1H-pyrrolizin-7a(5H)-yl)methoxy-d2)pyrido[4,3-d]pyrimidin-7-yl)naphthalen-2-amine]	< 50	264	2910	
[2H]C([2H])(Oc1nc(N2CCCC[C@H]3[C@@H](Cl)[C@H]32)c2cnc(-c3cc(N)cc4ccc(F)c(C#C)c34)c(F)c2n1)[C@@]12CCCN1C[C@H](F)C2 [Example 344, 4-(4-((1S,7R,8R)-8-chloro-2-azabicyclo[5.1.0]octan-2-yl)-8-fluoro-2-(((2R,7aS)-2-fluorotetrahydro-1H-pyrrolizin-7a(5H)-yl)methoxy-d2)pyrido[4,3-d]pyrimidin-7-yl)-5-ethynyl-6-fluoronaphthalen-2-amine]	500 to 10000	1930	≥ 10000	
[2H]C([2H])(Oc1nc(N2CCOC[C@@H]3[C@@H](F)[C@@H]32)c2cnc(-c3cc(N)cc4ccc(F)c(C#C)c34)c(F)c2n1)[C@@]12CCCN1C[C@H](F)C2 [Example 221, 5-ethynyl-6-fluoro-4-(8-fluoro-4-((1R,7R,8R)-8-fluoro-5-oxa-2-azabicyclo[5.1.0]octan-2-yl)-2-(((2R,7aS)-2-fluorotetrahydro-1H-pyrrolizin-7a(5H)-yl)methoxy-d2)pyrido[4,3-d]pyrimidin-7-yl)naphthalen-2-amine]	500 to 10000	> 3000	> 3000	
[2H]C([2H])(Oc1nc(N2CCOC[C@H]3C[C@H]32)c2cnc(-c3cc(N)cc4cc(F)c(F)c(C#C)c34)c(F)c2n1)[C@@]12CCCN1C[C@H](F)C2 [Example 62, 4-(4-((1R,7S)-5-oxa-2-azabicyclo[5.1.0]octan-2-yl)-8-fluoro-2-(((2R,7aS)-2-fluorotetrahydro-1H-pyrrolizin-7a(5H)-yl)methoxy-d2)pyrido[4,3-d]pyrimidin-7-yl)-5-ethynyl-6,7-difluoronaphthalen-2-amine]		62.6	443	50 to 500
[2H]C([2H])(Oc1nc(N2CCCC[C@@H]3[C@H](F)[C@@H]32)c2cnc(-c3cc(N)cc4cc(F)c(F)c(C#C)c34)c(F)c2n1)[C@@]12CCCN1C[C@H](F)C2 [Example 14, 5-Ethynyl-6,7-difluoro-4-(8-fluoro-4-((1R,7S,8S)-8-fluoro-2-azabicyclo[5.1.0]octan-2-yl)-2-(((2R,7aS)-2-fluorotetrahydro-1H-pyrrolizin-7a(5H)-yl)methoxy-d2)pyrido[4,3-d]pyrimidin-7-yl)naphthalen-2-amine]		≥ 10000	≥ 10000	500 to 10000
[2H]C([2H])(Oc1nc(N2CCCC[C@@H]3[C@H](Cl)[C@@H]32)c2cnc(-c3cc(N)cc4ccc(F)c(C#C)c34)c(F)c2n1)[C@@]12CCCN1C[C@H](F)C2 [Example 343, 4-(4-((1R,7S,8S)-8-chloro-2-azabicyclo[5.1.0]octan-2-yl)-8-fluoro-2-(((2R,7aS)-2-fluorotetrahydro-1H-pyrrolizin-7a(5H)-yl)methoxy-d2)pyrido[4,3-d]pyrimidin-7-yl)-5-ethynyl-6-fluoronaphthalen-2-amine]	500 to 10000	3000	≥ 10000	
C#Cc1c(F)ccc2cc(N)cc(-c3ncc4c(N5CCCC[C@H]6C[C@H]65)nc(OC[C@@]56CCCN5C[C@H](F)C6)nc4c3F)c12 [Example 5, 4-(4-((1R,7S)-2-azabicyclo[5.1.0]octan-2-yl)-8-fluoro-2-(((2R,7aS)-2-fluorotetrahydro-1H-pyrrolizin-7a(5H)-yl)methoxy)pyrido[4,3-d]pyrimidin-7-yl)-5-ethynyl-6-fluoronaphthalen-2-amine]		24.2	234	< 50
[2H]C([2H])(Oc1nc(N2CCCC[C@@H]3[C@@H](F)[C@@H]32)c2cnc(-c3cc(N)cc4cc(F)c(F)c(C#C)c34)c(F)c2n1)[C@@]12CCCN1C[C@H](F)C2 [Example 15, 5-Ethynyl-6,7-difluoro-4-(8-fluoro-4-((1R,7S,8R)-8-fluoro-2-azabicyclo[5.1.0]octan-2-yl)-2-(((2R,7aS)-2-fluorotetrahydro-1H-pyrrolizin-7a(5H)-yl)methoxy-d2)pyrido[4,3-d]pyrimidin-7-yl)naphthalen-2-amine]		≥ 10000	≥ 10000	500 to 10000
[2H]C([2H])(Oc1nc(N2CCOC[C@H]3[C@H](F)[C@H]32)c2c(OC)nc(-c3cc(N)cc4ccc(F)c(C#C)c34)c(F)c2n1)[C@@]12CCCN1C[C@H](F)C2 [Example 222, 5-Ethynyl-6-fluoro-4-(8-fluoro-4-((1S,7S,8S)-8-fluoro-5-oxa-2-azabicyclo[5.1.0]octan-2-yl)-2-(((2R,7aS)-2-fluorotetrahydro-1H-pyrrolizin-7a(5H)-yl)methoxy-d2)-5-methoxypyrido[4,3-d]pyrimidin-7-yl)naphthalen-2-amine]	< 50	11.7	53.7	
[2H]C([2H])(Oc1nc(N2CC=CC[C@@H]3[C@@H](F)[C@@H]32)c2cnc(-c3cc(N)cc4cc(F)c(F)c(C#C)c34)c(F)c2n1)[C@@]12CCCN1C[C@H](F)C2 [Example 138, 5-ethynyl-6,7-difluoro-4-(8-fluoro-4-((1R,7S,8R)-8-fluoro-2-azabicyclo[5.1.0]oct-4-en-2-yl)-2-(((2R,7aS)-2-fluorotetrahydro-1H-pyrrolizin-7a(5H)-yl)methoxy-d2)pyrido[4,3-d]pyrimidin-7-yl)naphthalen-2-amine]	500 to 10000	≥ 10000	≥ 10000	
